Here are results for four compounds from BindingDB's records for PubMed 37683364 (Institute of Respiratory Health).

For orientation: IC50 means the concentration at which inhibition is half-maximal.

The target in this assay is RAC-alpha serine/threonine-protein kinase (Homo sapiens, UniProt P31749). Briefly: Inhibition of AKT phosphorylation in human OVCAR-8 cells assessed as reduction in pAKT level incubated for 24 hrs by Western blot analysis.
Sequence of RAC-alpha serine/threonine-protein kinase (P31749 whole entry): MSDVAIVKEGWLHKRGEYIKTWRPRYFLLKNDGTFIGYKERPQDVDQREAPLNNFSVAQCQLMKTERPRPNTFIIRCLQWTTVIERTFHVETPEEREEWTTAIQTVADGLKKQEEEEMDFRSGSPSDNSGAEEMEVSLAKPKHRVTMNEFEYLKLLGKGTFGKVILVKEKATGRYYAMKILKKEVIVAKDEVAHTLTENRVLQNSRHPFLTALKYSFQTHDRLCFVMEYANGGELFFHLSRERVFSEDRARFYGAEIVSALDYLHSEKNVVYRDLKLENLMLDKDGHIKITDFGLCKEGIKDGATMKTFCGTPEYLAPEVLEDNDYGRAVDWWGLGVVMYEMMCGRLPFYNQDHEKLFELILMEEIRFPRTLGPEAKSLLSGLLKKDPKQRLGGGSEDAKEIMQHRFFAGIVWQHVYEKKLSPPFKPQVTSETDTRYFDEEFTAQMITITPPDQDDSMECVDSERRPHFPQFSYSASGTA
On to `O=C1NC(=O)C(Cc2ccc3nccc(-c4ccncc4)c3c2)S1` (centres undefined), for which the IC50 was determined as 40 nM.
To `Nc1ncc(-c2ccc3nccc(-c4ccncc4)c3c2)cc1S(N)(=O)=O` belongs 49 nM; to `O=S(=O)(Nc1cncc(-c2ccc3nccc(-c4ccncc4)c3c2)c1)c1ccccc1F`, 7 nM; to `c1cc(-c2ccnc3ccc(-c4cnc5[nH]ncc5c4)cc23)ccn1`, 76 nM.
